For assay [1], the target named is T1, ERRα ligand binding domain (ERRα-LBD) (Homo sapiens, UniProt P11474).
T1 construct: made in house; host or cells: E. coli
T1 sequence (P11474 193-421 limits assumed): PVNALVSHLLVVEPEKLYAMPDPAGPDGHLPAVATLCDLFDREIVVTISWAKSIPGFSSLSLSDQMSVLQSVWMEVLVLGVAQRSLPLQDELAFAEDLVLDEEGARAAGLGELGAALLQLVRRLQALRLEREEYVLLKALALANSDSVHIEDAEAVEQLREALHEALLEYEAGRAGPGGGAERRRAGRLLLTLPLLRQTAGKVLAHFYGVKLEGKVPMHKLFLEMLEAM
Nature of the assay: ERRα AlphaScreen Assay. The conditions noted are these: disruption of binding of ERRα-LBD protein to biotin-PGC1α-3 co-activator peptide; read-out: mean pIC50 (converted). The class given is biochemical. The text has this: This assay was based on the knowledge that nuclear receptors interact with cofactors in a ligand dependent matter. The sites of interaction have been mapped to LXXLL motifs that are present in the co-activator sequences. Short peptide sequences that contain the LXXLL motif mimic the behavior of full length co-activators.
The ERRα AlphaScreen Assay described here relies on the interaction of the co-activator peptide with purified bacterial- expressed ERRα ligand binding domain (ERRα-LBD); upon ligand binding, the ERRα protein can undergo a conformational change resulting in a loss of co-activator binding.
Compounds of the present invention were tested for their ability to disrupt binding of ERRα-LBD protein to co-activator peptide using AlphaScreen® Technology (Perkin Elmer). ERRα-LBD protein was expressed in E. coli as a 6×His Small Ubiquitin-like Modifier (SUMO) fusion. Bacterial expressed 6His-SUMO-ERRα-LBD protein was purified using affinity chromatography. All experiments were performed at room temperature in 384-well white non-binding plates (Greiner) using 50 mM Tris-HCl pH 7.5, 100 mM NaCl, 0.1% Pluronic F-127, 0.05% BSA and 5 mM TCEP as the buffer. Final DMSO concentration was 1% in the assay. Compounds were assayed in triplicate and: incubated with 0.81 nM ERRα-LBD protein and 10 μg/mL streptavidin donor beads and 10 μg/mL Ni-chelate acceptor beads for 1 hour at room temperature; followed by a 2-hour incubation with 15 nM biotin-PGC1α-3 peptide (QRRPCSELLKYLTTNDDPP) corresponding to amino acids 202 to 220.
The AlphaScreen signal was measured using an Envision Xcite plate reader (Perkin Elmer). Data was normalized, and curve fitting analysis was performed in GraphPad Prism 7 using a four-parameter dose-response fit.

The target of assay [2] is T2, full length ERRα (Homo sapiens, UniProt P11474).
T2 construct: an over-expression construct coding full length ERRα; expressed in transfected cells; host or cells: SK-BR-3 cells, transient co-transfection of pLP2124 (pcDNA3.1/Hygro(+) background) and reporter pLP2175
T2 sequence (P11474 1-423): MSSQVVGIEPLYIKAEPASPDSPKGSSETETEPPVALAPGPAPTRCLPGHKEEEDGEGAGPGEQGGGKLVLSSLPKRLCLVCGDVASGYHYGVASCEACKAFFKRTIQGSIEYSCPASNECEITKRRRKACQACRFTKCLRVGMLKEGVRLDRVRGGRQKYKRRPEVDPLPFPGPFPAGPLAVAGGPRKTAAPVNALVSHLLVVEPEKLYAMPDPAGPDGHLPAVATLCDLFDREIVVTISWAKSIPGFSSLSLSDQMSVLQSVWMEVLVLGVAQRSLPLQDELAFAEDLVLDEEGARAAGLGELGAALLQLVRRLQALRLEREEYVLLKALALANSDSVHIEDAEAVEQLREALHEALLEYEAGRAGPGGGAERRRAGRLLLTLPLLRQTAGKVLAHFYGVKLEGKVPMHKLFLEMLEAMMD
Nature of the assay: Full Length ERRα Reporter Gene Assay. In kind it is cell-based. The note with it: SK-BR-3 cells, ERRα-RE luciferase reporter, overnight incubation; read-out: mean pIC50 (converted). The text has this: A method was established to quantitatively screen the potency of compounds with inverse agonistic activity on the nuclear receptor ERRα of the human species. The assay allows intra-cellular screening of ERRα inverse agonists in SK-BR-3 cells using an over-expression construct coding full length ERRα and a reporter construct containing an ERRα Response Element (RE) and a luciferase gene for read out. The activity is expressed in logIC50 values and can be used to determine SAR of compound families or to de-select compounds.
In this assay, reporter cells are obtained by transient co-transfection of two constructs in SK-BR-3 cells using standard transfection techniques. The first construct contains a response element of the nuclear receptor ERRα (Plasmid pLP2175, Reporter construct ERRα-RE/luc2P, cloned variant of ERRα_v2_synthRE, Switchgear Genomics, Catalog Number S900089). This sequence drives the transcription of the luciferase reporter gene in response to binding of an ERRα protein encoded by the second construct (Plasmid pLP2124: full length ERRα expression construct using pcDNA3.1/Hygro(+) as background, Invitrogen Catalog Number V87020).
The day after transfection, cells were plated into 96 well plates, the test compound was added and the plates were incubated overnight. Subsequently, the firefly luciferase activity was quantified using luciferase detection reagent and luminescence readout.
Transfection is performed on pre-seeded SK-BR-3 cells in a T175 flask. One transfected T175 flask is sufficient for seeding 3 to 4 MW96 plates the next day, depending on the confluency of the transfected cells.
Two different media are used in this protocol for cell treatment: 1) Culture medium, i.e. McCoy's 5a with phenol red (BioWhittaker Supplier Number 12-688F), 10% FBS and 1× Penstrep.; and, 2) Assay medium, i.e. McCoy's 5a Medium phenol red free (HyClone Product Code SH30270.01) with 2% Charcoal Stripped FBS and 1× Penstrep. Compound dilutions are prepared in assay medium.
Cells are seeded at least 2 days in advance to allow the cells to adhere well to flask before transfection. Cells should be 50-80% confluent at the day of transfection.
SKBR3 cells were transfected with the transcriptional reporter construct pLP2175 and the ERRα expression construct pLP2124 (as described above).
68 μL of Lipofectamine LTX transfection reagent (Invitrogen Catalog Number 15338-100) was added dropwise to 8.9 ml Opti-MEM I Reduced Serum Medium (Gibco Catalog Number 51985-026) and incubated at room temperature for 5 to 20 minutes. 8.9 ml of this reagent mixture was added to 22 μg pLP2175+22 μg pLP2124 (ratio 1:1 and total volume 10 ml), and incubated at room temperature for 25 minutes.
10 minutes before adding the transfection mix to SKBR3 cells in a T175 flask, the culture medium was refreshed with 20 mL culture medium. Subsequently, the 10 mL DNA-Opti-MEM-Lipofectamine mixture was gently added to the cells, followed by overnight (16-24 hours) incubation at 37° C. and 5% CO2.
To harvest SKBR3 cells from a T175 flask, first the medium was removed. Subsequently, cells were washed with Phosphate Buffered Saline (PBS) (Lonza), after which the PBS was removed. To dissociate the cells, 2 ml of TrypLE Express (I nvitrogen) was added to the flask, followed by incubation at 37° C. for 5 minutes. The flask was tapped until cells were detached from the bottom. Cells were collected in 8 mL of culture medium (McCoy's 5a, 10% FBS, penstrep), to achieve a single cell suspension. After cell count, cells were spun down for 5 minutes at 300 g. Next cell pellets were re-suspended to 25000 cells/80 μl assay medium (McCoy's 5a phenol red free, 2% charcoal stripped FBS, penstrep).
For compound screening, the cells were harvested (as described above). 80 μL of cell suspension (25,000 cells) was plated per well into a white, flat bottom, tissue culture treated, 96 well screening plates (Greiner). […]
On the technique in general: In a reporter assay the amount or activity of a reporter protein is the signal.

As to `COc1cc(C2CC(=O)Nc3n[nH]cc32)ccc1Oc1ccc(C)cc1C(C)(C)C` (stereo not drawn) [Example 34, 4-[4-(2-tert-butyl-4-methylphenoxy)-3-methoxyphenyl]-2H,4H,5H,6H,7H-pyrazolo[3,4-b]pyridin-6-one], the values for the IC50 in assay [1] and in assay [2] were at most 10 nM and at most 316 nM, respectively.
Turning to `COc1cc(C2CC(=O)Nc3n[nH]cc32)ccc1Oc1cc(C(F)F)cc(C(F)(F)F)c1` (single isomer, unassigned; (-)) [Example 86, (−)-4-{4-[3-(difluoromethyl)-5-(trifluoromethyl)phenoxy]-3-methoxyphenyl}-2H, 4H,5H,6H,7H-pyrazolo[3,4-b]pyridin-6-one], the IC50 in assay [1] is at most 10 nM; in assay [2], at most 316 nM.
As to `COc1cc(C2CC(=O)Nc3n[nH]cc32)ccc1Oc1ccccc1C(C)(C)C` (stereo not drawn) [Example 10, 4-[4-(2-tert-butylphenoxy)-3-methoxyphenyl]-2H,4H,5H,6H,7H-pyrazolo[3,4-b]pyridin-6-one], the figures for the IC50 in assay [1] and in assay [2] were 10 to 100 nM and at most 316 nM, respectively.
For `COC(=O)c1cc(Oc2ccc(C3CC(=O)Nc4n[nH]cc43)cc2OC)cc(C(F)(F)F)c1` (stereo not drawn) [Example 41, methyl 3-(2-methoxy-4-{6-oxo-2H,4H,5H,6H,7H-pyrazolo[3,4-b]pyridin-4-yl}phenoxy)-5-(trifluoromethyl)benzoate], the IC50 is 10 to 100 nM in assay [1] and at most 316 nM in assay [2].
On to `COc1cc(C2CC(=O)Nc3n[nH]cc32)ccc1Oc1ccc(O)c(C(C)(C)C)c1` (stereo not drawn) [Example 29, 4-[4-(3-tert-butyl-4-hydroxyphenoxy)-3-methoxyphenyl]-2H,4H,5H,6H,7H-pyrazolo[3,4-b]pyridin-6-one], for which the IC50 in assay [1] was at most 10 nM; in assay [2], at most 316 nM.
Regarding `COc1cc(-c2cc(=O)[nH]c3n[nH]cc23)ccc1Oc1ccc(Br)cc1C(C)(C)C` [Example 70, 4-[4-(4-bromo-2-tert-butylphenoxy)-3-methoxyphenyl]-2H,6H,7H-pyrazolo[3,4-b]pyridin-6-one], the IC50 in assay [1] was at most 10 nM; in assay [2], at most 316 nM.
For `COc1cc(-c2cc(=O)[nH]c3n[nH]cc23)ccc1Oc1ccc(C)cc1C(C)(C)C` [Example 69, 4-[4-(2-tert-butyl-4-methylphenoxy)-3-methoxyphenyl]-2H,6H,7H-pyrazolo[3,4-b]pyridin-6-one], the results for the IC50 in assay [1] and in assay [2] were at most 10 nM and at most 316 nM, respectively.
In the case of `COc1cc(Oc2ccc(C3CC(=O)Nc4n[nH]cc43)cc2OC)cc(C(F)(F)F)c1` (stereo not drawn) [Example 38, 4-{3-methoxy-4-[3-methoxy-5-(trifluoromethyl)phenoxy]phenyl}-2H,4H,5H,6H,7H-pyrazolo[3,4-b]pyridin-6-one], the IC50 is at most 10 nM in assay [1] and at most 316 nM in assay [2].
In the case of `COC(=O)c1ccc(Oc2ccc(C3CC(=O)Nc4n[nH]cc43)cc2OC)c(C(C)(C)C)c1` (stereo not drawn) [Example 35, methyl 3-tert-butyl-4-(2-methoxy-4-{6-oxo-2H,4H,5H,6H,7H-pyrazolo[3,4-b]pyridin-4-yl}phenoxy)benzoate], the figures for the IC50 in assay [1] and in assay [2] were at most 10 nM and at most 316 nM, respectively.
For `COc1cc(C2CC(=O)Nc3n[nH]cc32)ccc1Oc1ccc(C#N)cc1C(C)(C)C` (stereo not drawn) [Example 39, 3-tert-butyl-4-(2-methoxy-4-{6-oxo-2H,4H,5H,6H,7H-pyrazolo[3,4-b]pyridin-4-yl}phenoxy)benzonitrile], the IC50 in assay [1] is at most 10 nM; in assay [2], at most 316 nM.
Take `COc1ccc(Oc2ccc(-c3cc(=O)[nH]c4n[nH]cc34)cc2OC)c(C(C)(C)C)c1` [Example 68, 4-[4-(2-tert-butyl-4-methoxyphenoxy)-3-methoxyphenyl]-2H,6H,7H-pyrazolo[3,4-b]pyridin-6-one]: the IC50 in assay [1] is at most 10 nM; in assay [2] it was at most 316 nM.
Consider `COc1cc(C2CC(=O)Nc3n[nH]cc32)ccc1Oc1cc(C(F)(F)F)cc(C(F)(F)F)c1` (racemic) [Example 43, 4-{4-[3,5-bis(trifluoromethyl)phenoxy]-3-methoxyphenyl}-2H,4H,5H,6H,7H-pyrazolo[3,4-b]pyridin-6-one], for which the IC50 in assay [1] is 10 to 100 nM; in assay [2] it was at most 316 nM.

Source of the values: patent US20240150342A1, “ESTROGEN-RELATED RECEPTOR ALPHA MODULATORS” (LEAD PHARMA HOLDING B.V., priority 2019, published 2024).
